Values of other authors as cited in patent publication US20090143360A1, “Oxcarbazepine Formulation” (priority 2005, published 2009).

In the case of `NC(=O)N1c2ccccc2CC(=O)c2ccccc21` [Oxcarbazepine, 10,11-Dihydro-10-oxo-5H-dibenz[b,f]azepine-5-carboxamide], the Solubility in water is listed as “very low”.
